# Laboratory results taken from ChEMBL document CHEMBL1201862, “PubChem BioAssay data set” (2004).
#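 Briefly, cells in 96-well plates were exposed to five compound concentrations for 48 h, and endpoints were estimated by linear interpolation. Abbreviation: GI50, concentration required for 50% inhibition of growth.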 Calls of active or inactive are those of the source. No stated cut-off is given here; in the data, active = GI50 up to about 1.1 µM and inactive = higher.
# How the values were obtained:
# Assay in all cases: NCI anticancer screen, dose series, 48 h
# A549 = tested on: A549
# BT-549 = tested on: BT-549
# CAKI-1 = tested on: CAKI-1
# EKVX = tested on: EKVX
# HCC 2998 = tested on: HCC 2998
# HOP-18 = tested on: HOP-18
# HT-29 = tested on: HT-29
# KM12 = tested on: KM12
# M14 = tested on: M14
# MDA-MB-231 = tested on: MDA-MB-231
# MDA-MB-435 = tested on: MDA-MB-435
# NCI-H23 = tested on: NCI-H23
# NCI-H522 = tested on: NCI-H522
# OVCAR-3 = tested on: OVCAR-3
# SF-268 = tested on: SF-268
# SK-MEL-5 = tested on: SK-MEL-5
# SNB-19 = tested on: SNB-19
# UO-31 = tested on: UO-31
# LOX IMVI = tested on: LOX IMVI
# MDA-N = tested on: MDA-N
Compound,GI50 (A549),GI50 (BT-549),GI50 (CAKI-1),GI50 (EKVX),GI50 (HCC 2998),GI50 (HOP-18),GI50 (HT-29),GI50 (KM12),GI50 (M14),GI50 (MDA-MB-231),GI50 (MDA-MB-435),GI50 (NCI-H23),GI50 (NCI-H522),GI50 (OVCAR-3),GI50 (SF-268),GI50 (SK-MEL-5),GI50 (SNB-19),GI50 (UO-31),GI50 (LOX IMVI),GI50 (MDA-N)
COc1cccc2c1C(=O)C=CC2=O,20 µM (inactive),15.5 µM (inactive),7.66 µM (inactive),18.5 µM (inactive),15.3 µM (inactive),10.4 µM (inactive),11 µM (inactive),9.82 µM (inactive),8.49 µM (inactive),2.15 µM (inactive),10.1 µM (inactive),14.8 µM (inactive),2.39 µM (inactive),1.85 µM (inactive),6.73 µM (inactive),15.3 µM (inactive),15.5 µM (inactive),15.4 µM (inactive),,
O=C1/C(=C/c2ccc(Cl)cc2)CCC1CNc1ccc(Cl)cc1 (centres undefined),7.8 µM (inactive),24.3 µM (inactive),7.55 µM (inactive),10.7 µM (inactive),6.01 µM (inactive),33.9 µM (inactive),3.67 µM (inactive),1.29 µM (inactive),2.37 µM (inactive),6.7 µM (inactive),15.1 µM (inactive),10.3 µM (inactive),1.8 µM (inactive),7.18 µM (inactive),7.4 µM (inactive),3.33 µM (inactive),14.7 µM (inactive),5.35 µM (inactive),673 nM (active),11.8 µM (inactive)
O=c1oc2ccccc2[n+]([O-])c1-c1ccccc1,> 100 µM (inactive),,> 100 µM (inactive),> 100 µM (inactive),> 100 µM (inactive),> 100 µM (inactive),> 100 µM (inactive),> 100 µM (inactive),> 100 µM (inactive),,,> 100 µM (inactive),36.6 µM (inactive),> 100 µM (inactive),> 100 µM (inactive),> 100 µM (inactive),> 100 µM (inactive),> 100 µM (inactive),> 100000 nM (inactive),
CC[C@@]1(O)C(=O)OCc2c1cc1n(c2=O)Cc2cc3ccccc3nc2-1 [CAMPTOTHECIN],0.0181 µM (active),0.115 µM (active),0.0118 µM (active),0.0951 µM (active),0.159 µM (active),0.122 µM (active),0.0449 µM (active),0.159 µM (active),< 0.0206 µM (active),0.938 µM (active),0.0658 µM (active),0.0194 µM (active),0.0223 µM (active),0.177 µM (active),0.0115 µM (active),0.0272 µM (active),0.0182 µM (active),0.0303 µM (active),26.1 nM (active),0.145 µM (active)
